Data reported in PubChem BioAssay AID1963435 (Molecular Pharmacology Branch, DTP, NCI, 2024).
pIC50: −log10 of the molar value. Values joined by “and” are separate entries in the source; they are usually repeats but may differ in a detail not shown here. Equal entries are not always repeated.

Tested on: PANC-1 complex spheroid growth, percent test/control
Assay: Anticancer human tumor PANC-1 cell line growth inhibition [Asc];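 further: spheroids exposed to agents for 7 days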;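 on viability, T/C: percent viability relative to DMSO vehicle wells taken as 100%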
Conditions: for viability, T/C: stronger effect = lower value; active means viability on the fitted dose curve at most 10% of control; inactive means the rest
In short: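 Tumor cells were grown as multicellular spheroids with stromal HUVEC and mesenchymal stem cells and treated singly or in combination. Concentrations fell in half-log steps from the clinical Cmax, or from 10 microM where none was known.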

O=C(c1cc(Cc2n[nH]c(=O)c3ccccc23)ccc1F)N1CCN(C(=O)C2CC2)CC1 + CCN1C(C(=O)NC23CCC(C(=O)O)(CC2)CC3)C(c2cccc(Cl)c2F)C2(C(=O)Nc3cc(Cl)ccc32)C12CCCCC2
< 5.00: pIC50 (curve of first compound, second compound 0.00949 µM) | pIC50 (curve of first compound, second compound 0.03 µM) | pIC50 (curve of first compound, second compound 0.0949 µM) | pIC50 (curve of first compound, second compound 0.3 µM) | pIC50 (curve of first compound, second compound 0.949 µM) | pIC50 (curve of first compound, second compound 3 µM)
inactive: viability, T/C (second compound 0.00949 µM, first compound 0.0316 µM) 88.1% | viability, T/C (second compound 0.00949 µM, first compound 0.1 µM) 93.6% | viability, T/C (second compound 0.00949 µM, first compound 0.316 µM) 96.2% | viability, T/C (second compound 0.00949 µM, first compound 1 µM) 93.6% | viability, T/C (second compound 0.00949 µM, first compound 3.16 µM) 114% | viability, T/C (second compound 0.00949 µM, first compound 10 µM) 104% | viability, T/C (second compound 0.03 µM, first compound 0.0316 µM) 103% | viability, T/C (second compound 0.03 µM, first compound 0.1 µM) 98.7% | viability, T/C (second compound 0.03 µM, first compound 0.316 µM) 102% | viability, T/C (second compound 0.03 µM, first compound 1 µM) 99.4% | viability, T/C (second compound 0.03 µM, first compound 3.16 µM) 102% | viability, T/C (second compound 0.03 µM, first compound 10 µM) 97.2% | viability, T/C (second compound 0.0949 µM, first compound 0.0316 µM) 100% | viability, T/C (second compound 0.0949 µM, first compound 0.1 µM) 94.9% | viability, T/C (second compound 0.0949 µM, first compound 0.316 µM) 99.5% | viability, T/C (second compound 0.0949 µM, first compound 1 µM) 104% | viability, T/C (second compound 0.0949 µM, first compound 3.16 µM) 102% | viability, T/C (second compound 0.0949 µM, first compound 10 µM) 93.9% | viability, T/C (second compound 0.3 µM, first compound 0.0316 µM) 104% | viability, T/C (second compound 0.3 µM, first compound 0.1 µM) 97.9% | viability, T/C (second compound 0.3 µM, first compound 0.316 µM) 111% | viability, T/C (second compound 0.3 µM, first compound 1 µM) 103% | viability, T/C (second compound 0.3 µM, first compound 3.16 µM) 105% | viability, T/C (second compound 0.3 µM, first compound 10 µM) 93.2% | viability, T/C (second compound 0.949 µM, first compound 0.0316 µM) 101% | viability, T/C (second compound 0.949 µM, first compound 0.1 µM) 103% | viability, T/C (second compound 0.949 µM, first compound 0.316 µM) 110% | viability, T/C (second compound 0.949 µM, first compound 1 µM) 102% | viability, T/C (second compound 0.949 µM, first compound 3.16 µM) 111% | viability, T/C (second compound 0.949 µM, first compound 10 µM) 101% | viability, T/C (second compound 3 µM, first compound 0.0316 µM) 116% | viability, T/C (second compound 3 µM, first compound 0.1 µM) 117% | viability, T/C (second compound 3 µM, first compound 0.316 µM) 107% | viability, T/C (second compound 3 µM, first compound 1 µM) 126% | viability, T/C (second compound 3 µM, first compound 3.16 µM) 121% | viability, T/C (second compound 3 µM, first compound 10 µM) 114%

C=CC(=O)N1CCN(c2nc(=O)n(-c3c(C)ccnc3C(C)C)c3nc(-c4c(O)cccc4F)c(F)cc23)C(C)C1 (stereo not drawn)
inactive: viability, T/C (compound 0.0316 µM) 105% and 97.2% and 101% | viability, T/C (compound 0.1 µM) 96% and 89.2% and 90% | viability, T/C (compound 0.316 µM) 104% and 106% and 98% | viability, T/C (compound 1 µM) 101% and 89.2% and 96.2% | viability, T/C (compound 3.16 µM) 85.8% and 99.7% and 91.8% | viability, T/C (compound 10 µM) 93.4% and 87.1% and 88%
< 5.00: pIC50 (curve of compound)

NC(=O)C(=Cn1cnc(-c2cc(C(F)(F)F)cc(C(F)(F)F)c2)n1)c1cncnc1
inactive: viability, T/C (compound 0.000949 µM) 99.7% and 95.2% and 104% | viability, T/C (compound 0.003 µM) 88.1% and 92.4% and 96.4% | viability, T/C (compound 0.00949 µM) 92% and 89% and 111% | viability, T/C (compound 0.03 µM) 89.8% and 103% and 102% | viability, T/C (compound 0.0949 µM) 113% and 114% and 130% | viability, T/C (compound 0.3 µM) 92.5% and 100% and 118%
< 6.52: pIC50 (curve of compound)

C=C(F)C(=O)N1CCN(c2nc(OCC3CCCN3C)nc3c2CCN(c2cccc4cccc(Cl)c24)C3)CC1CC#N (stereo not drawn)
inactive: viability, T/C (compound 0.0316 µM) 108% and 97% and 96.2% | viability, T/C (compound 0.1 µM) 105% and 86% and 95% | viability, T/C (compound 0.316 µM) 94.3% and 104% and 98% | viability, T/C (compound 1 µM) 101% and 96.9% and 96.6% | viability, T/C (compound 3.16 µM) 97.6% and 102% and 90.8% | viability, T/C (compound 10 µM) 29.9% and 33.2% and 31.5%
5.15 and 5.13 and 5.16: pIC50 (curve of compound)
